Laboratory results published in patent publication US4482565A, “β-Lactam-containing antibacterial agents and β-lactamase inhibitors” (Farmitalia Carlo Erba S.p.A., priority 1981, dated 1984).
Values after ≈ are worked out from the molar mass of the structure shown. Read-outs that look alike come from different tables or passages of the source.

Assays:
Format in all cases: cell-based
Proteus mirabilis V15 = experiment: in vitro antibacterial activity (MIC); settings: read-out: MIC (minimal inhibitory concentration)
[1] = tested on: Klebsiella pneumoniae ATCC 10031; experiment: in vitro antibacterial activity (MIC), second listing of the strain; settings: ATCC10031, collection strain (second listing), read-out: MIC (minimal inhibitory concentration)
Shigella flexneri = experiment: in vitro antibacterial activity (MIC); settings: read-out: MIC (minimal inhibitory concentration)
Protocol: A series of tests was carried out in vitro to compare the activities of (5R)-acetoxymethyl-2-acetoxymethyl-2-penum-3-carboxylate (Laboratory code FCE/20077/B40/341), (5R) acetoxymethyl-2-[(1-methyl-1H-tetrazol-5-yl)-thiomethyl]-2-penem-3-carboxylate (compound A), three reference compounds (ampicillin, cefoxitin, and thienamycin), and compound 387, which is (5R)-2-acetoxymethyl-6-(1-hydroxyethyl)-2-penem-3-carboxylic acid. The acetoxymethoxy ester of compound 387 is prepared in Example 51 and the sodium salt of the acid is prepared in Example 98 infra. Table 1 below reports the results of the above assays as MIC (minimal inhibitory concentration).

[2] = tested on: Pseudomonas aeruginosa ATCC 2598; experiment: in vitro antibacterial activity (MIC); settings: ATCC2598, collection strain, read-out: MIC (minimal inhibitory concentration)
Escherichia coli B = experiment: in vitro antibacterial activity (MIC); settings: read-out: MIC (minimal inhibitory concentration)
Escherichia coli V23 = experiment: in vitro antibacterial activity (MIC); settings: read-out: MIC (minimal inhibitory concentration)
Escherichia coli V14 = experiment: in vitro antibacterial activity (MIC); settings: read-out: MIC (minimal inhibitory concentration)
[3] = tested on: Staphylococcus aureus 209P; experiment: in vitro antibacterial activity (MIC); settings: collection strain, read-out: MIC (minimal inhibitory concentration)
[4] = tested on: Klebsiella pneumoniae ATCC 10031; experiment: in vitro antibacterial activity (MIC); settings: ATCC10031, Klebsiella pneumoniae ATCC 10031 (first listing), read-out: MIC (minimal inhibitory concentration)
[5] = tested on: Salmonella Saint Paul F20; experiment: in vitro antibacterial activity (MIC); settings: read-out: MIC (minimal inhibitory concentration)
Escherichia coli R 6 K = experiment: in vitro antibacterial activity (MIC); settings: R6K, read-out: MIC (minimal inhibitory concentration)
Proteus mirabilis = experiment: in vitro antibacterial activity (MIC), collection strain; settings: read-out: MIC (minimal inhibitory concentration)
[6] = tested on: Salmonella montevideo F16; experiment: in vitro antibacterial activity (MIC); settings: Salmonella enterica, read-out: MIC (minimal inhibitory concentration)
Enterobacter sp V19 = experiment: in vitro antibacterial activity (MIC); settings: read-out: MIC (minimal inhibitory concentration)
Pseudomonas aeruginosa = experiment: in vitro antibacterial activity (MIC); settings: read-out: MIC (minimal inhibitory concentration)
[7] = tested on: Pseudomonas aeruginosa FI; experiment: in vitro antibacterial activity (MIC); settings: collection strain, read-out: MIC (minimal inhibitory concentration)
Escherichia coli R 57 B = experiment: in vitro antibacterial activity (MIC); settings: Escherichia coli, R57B, read-out: MIC (minimal inhibitory concentration)
Salmonella panamae F15 = experiment: in vitro antibacterial activity (MIC)
Escherichia coli R 46 = experiment: in vitro antibacterial activity (MIC); settings: Escherichia coli, R46, read-out: MIC (minimal inhibitory concentration)
Klebsiella sp. R2 = experiment: in vitro antibacterial activity (MIC); settings: read-out: MIC (minimal inhibitory concentration)
Escherichia coli RGN 238 = experiment: in vitro antibacterial activity (MIC); settings: RGN238, lactamase producer, read-out: MIC (minimal inhibitory concentration)
Proteus vulgaris V15 = experiment: in vitro antibacterial activity (MIC); settings: read-out: MIC (minimal inhibitory concentration)
Salmonella derby F14 = experiment: in vitro antibacterial activity (MIC); settings: Salmonella enterica, read-out: MIC (minimal inhibitory concentration)
[8] = tested on: Staphylococcus aureus Smith; experiment: in vitro antibacterial activity (MIC); settings: collection strain, read-out: MIC (minimal inhibitory concentration)
Escherichia coli P 453 = experiment: in vitro antibacterial activity (MIC)
Escherichia coli RP 1 = experiment: in vitro antibacterial activity (MIC); settings: RP1, read-out: MIC (minimal inhibitory concentration)
Enterobacter cloacae 214 = experiment: in vitro antibacterial activity (MIC); settings: lactamase producer, read-out: MIC (minimal inhibitory concentration)
[9] = tested on: Staphylococcus aureus 153; experiment: in vitro antibacterial activity (MIC); settings: lactamase producer, read-out: MIC (minimal inhibitory concentration)
Escherichia coli R 997 = experiment: in vitro antibacterial activity (MIC); settings: R997, read-out: MIC (minimal inhibitory concentration)
[10] = tested on: Klebsiella aerogenes ATCC 1082 E; experiment: in vitro antibacterial activity (MIC)
Streptococcus pyogenes = experiment: in vitro antibacterial activity (MIC); settings: read-out: MIC (minimal inhibitory concentration)
Salmonella typhimurium [11] = experiment: in vitro antibacterial activity (MIC); settings: Salmonella enterica, Salmonella typhimurium (first listing), read-out: MIC (minimal inhibitory concentration)
Escherichia coli B Cef R = experiment: in vitro antibacterial activity (MIC); settings: read-out: MIC (minimal inhibitory concentration)
[12] = tested on: Salmonella abortivoequina; experiment: in vitro antibacterial activity (MIC); settings: collection strain, read-out: MIC (minimal inhibitory concentration)
[13] = tested on: Staphylococcus aureus PV2; experiment: in vitro antibacterial activity (MIC); settings: read-out: MIC (minimal inhibitory concentration)
Proteus mirabilis 525 = experiment: in vitro antibacterial activity (MIC)
Salmonella typhimurium [14] = experiment: in vitro antibacterial activity (MIC), collection strain; settings: Salmonella enterica, TYPHIMURIUM, read-out: MIC (minimal inhibitory concentration)
[15] = tested on: Enterobacter cloacae P 99; experiment: in vitro antibacterial activity (MIC); settings: P99, read-out: MIC (minimal inhibitory concentration)
[16] = in vitro, Escherichia coli B, collection strain

SMILES: CO[C@@]1(NC(=O)Cc2cccs2)C(=O)N2C(C(=O)O)=C(COC(N)=O)CS[C@@H]21 [Cefoxitin]
- MIC (Proteus mirabilis V15): 0.78 µg/mL (≈ 1.82 µM)
- MIC [1]: 0.78 µg/mL (≈ 1.82 µM)
- MIC (Shigella flexneri): 0.78 µg/mL (≈ 1.82 µM)
- MIC [2]: > 100 µg/mL
- MIC (Escherichia coli B; Escherichia coli): 1.56 µg/mL (≈ 3.65 µM)
- MIC (Escherichia coli V23): 12.5 µg/mL (≈ 29.2 µM)
- MIC (Escherichia coli V14): 3.12 µg/mL (≈ 7.3 µM)
- MIC [3]: 0.78 µg/mL (≈ 1.82 µM)
- MIC [4]: 0.78 µg/mL (≈ 1.82 µM)
- MIC [5]: 3.12 µg/mL (≈ 7.3 µM)
- MIC (Escherichia coli R 6 K): 3.1 µg/mL (≈ 7.25 µM)
- MIC (Proteus mirabilis): 1.56 µg/mL (≈ 3.65 µM)
- MIC [6]: 3.12 µg/mL (≈ 7.3 µM)
- MIC (Enterobacter sp V19): 12.5 µg/mL (≈ 29.2 µM)
- MIC (Pseudomonas aeruginosa): 6.25 µg/mL (≈ 14.6 µM)
- MIC [7]: 6.25 µg/mL (≈ 14.6 µM)
- MIC (Escherichia coli R 57 B): 1.56 µg/mL (≈ 3.65 µM)
- MIC (Salmonella panamae F15; Salmonella, F15, read-out: MIC (minimal inhibitory concentration)): 1.56 µg/mL (≈ 3.65 µM)
- MIC (Escherichia coli R 46): 1.56 µg/mL (≈ 3.65 µM)
- MIC (Klebsiella sp. R2): 12.5 µg/mL (≈ 29.2 µM)
- MIC (Escherichia coli RGN 238): 3.12 µg/mL (≈ 7.3 µM)
- MIC (Proteus vulgaris V15): 0.78 µg/mL (≈ 1.82 µM)
- MIC (Salmonella derby F14): 3.12 µg/mL (≈ 7.3 µM)
- MIC [8]: 0.78 µg/mL (≈ 1.82 µM)
- MIC (Escherichia coli P 453; Escherichia coli, P453, read-out: MIC (minimal inhibitory concentration)): 1.56 µg/mL (≈ 3.65 µM)
- MIC (Escherichia coli RP 1): 1.56 µg/mL (≈ 3.65 µM)
- MIC (Enterobacter cloacae 214): > 100 µg/mL
- MIC [9]: 0.78 µg/mL (≈ 1.82 µM)
- MIC (Escherichia coli R 997): 6.25 µg/mL (≈ 14.6 µM)
- MIC ([10]; Klebsiella aerogenes, ATCC1082, read-out: MIC (minimal inhibitory concentration)): 6.25 µg/mL (≈ 14.6 µM)
- MIC (Streptococcus pyogenes): 1.56 µg/mL (≈ 3.65 µM)
- MIC (Salmonella typhimurium [11]): 3.12 µg/mL (≈ 7.3 µM)
- MIC (Escherichia coli B Cef R): > 100 µg/mL
- MIC [12]: 0.78 µg/mL (≈ 1.82 µM)
- MIC [13]: 0.78 µg/mL (≈ 1.82 µM)
- MIC (Proteus mirabilis 525; Proteus mirabilis, 525, read-out: MIC (minimal inhibitory concentration)): 1.56 µg/mL (≈ 3.65 µM)
- MIC (Salmonella typhimurium [14]): 1.56 µg/mL (≈ 3.65 µM)
- MIC [15]: 100 µg/mL (≈ 234 µM)

SMILES: C[C@@H](O)[C@H]1C(=O)N2C(C(=O)O)=C(SCCN)C[C@H]12 [Thienamycin]
- MIC [1]: 1.56 µg/mL (≈ 5.73 µM)
- MIC (Escherichia coli B; [16]): 0.78 µg/mL (≈ 2.86 µM)
- MIC [3]: ≤ 0.39 µg/mL
- MIC (Escherichia coli R 6 K): 0.78 µg/mL (≈ 2.86 µM)
- MIC (Pseudomonas aeruginosa): 12.5 µg/mL (≈ 45.9 µM)
- MIC [7]: 12.5 µg/mL (≈ 45.9 µM)
- MIC (Escherichia coli RGN 238): 0.36 µg/mL (≈ 1.32 µM)
- MIC (Escherichia coli P 453; P453, in vitro, Escherichia coli P 453, lactamase producer, read-out: MIC (minimal inhibitory concentration)): 0.78 µg/mL (≈ 2.86 µM)
- MIC (Escherichia coli RP 1): 0.36 µg/mL (≈ 1.32 µM)
- MIC (Escherichia coli R 997): 0.36 µg/mL (≈ 1.32 µM)
- MIC ([10]; ATCC1082, in vitro, Klebsiella aerogenes ATCC 1082 E, lactamase producer, read-out: MIC (minimal inhibitory concentration)): 1.56 µg/mL (≈ 5.73 µM)
- MIC (Escherichia coli B Cef R): 12.5 µg/mL (≈ 45.9 µM)

SMILES: CC(=O)OCOC(=O)C1=C(CSc2nnnn2C)S[C@@H]2CC(=O)N12 [Compound A, (5R)-Acetoxymethyl-2-[(1-methyl-1-H-tetrazol-5-yl)-thiomethyl]-2-penem-3-carboxylate]
- MIC (Proteus mirabilis V15): 0.78 µg/mL (≈ 2.1 µM)
- MIC (Shigella flexneri): 0.39 µg/mL (≈ 1.05 µM)
- MIC (Escherichia coli B; [16]): 0.78 µg/mL (≈ 2.1 µM)
- MIC (Escherichia coli V23): 0.78 µg/mL (≈ 2.1 µM)
- MIC (Escherichia coli V14): 0.78 µg/mL (≈ 2.1 µM)
- MIC [3]: 0.39 µg/mL (≈ 1.05 µM)
- MIC [4]: 3.12 µg/mL (≈ 8.4 µM)
- MIC [5]: 0.78 µg/mL (≈ 2.1 µM)
- MIC [6]: 0.78 µg/mL (≈ 2.1 µM)
- MIC (Enterobacter sp V19): > 100 µg/mL
- MIC (Pseudomonas aeruginosa; in vitro): 0.39 µg/mL (≈ 1.05 µM)
- MIC (Salmonella panamae F15; in vitro, Salmonella panamae F15, read-out: MIC (minimal inhibitory concentration)): 0.78 µg/mL (≈ 2.1 µM)
- MIC (Proteus vulgaris V15): 6.25 µg/mL (≈ 16.8 µM)
- MIC (Salmonella derby F14): 0.78 µg/mL (≈ 2.1 µM)
- MIC [8]: 0.39 µg/mL (≈ 1.05 µM)
- MIC [9]: 0.78 µg/mL (≈ 2.1 µM)
- MIC (Streptococcus pyogenes; in vitro): 0.78 µg/mL (≈ 2.1 µM)
- MIC (Salmonella typhimurium [11]): 0.78 µg/mL (≈ 2.1 µM)
- MIC [13]: 0.78 µg/mL (≈ 2.1 µM)
- MIC (Proteus mirabilis 525; in vitro, Proteus mirabilis 525, read-out: MIC (minimal inhibitory concentration)): 0.78 µg/mL (≈ 2.1 µM)
